In assay [1] the test system is Botrytis cinerea CA17. Description: microbe, parasite or virus in culture. It counts as cell-based.
Assay [2] concerns Staphylococcus epidermidis ATCC 14990. The conditions noted are these: Ref 6; producer Pseudomonas aurantiaca; cited from earlier work.
For assay [3], the system named is Drechslera sorokiniana. The conditions noted are these: Ref 1; producer Pseudomonas sp. Ki19; cited from earlier work.
For assay [4], the system named is Xanthomonas euvesicatoria 75-3. Kind of assay: microbe, parasite or virus in culture. Particulars: 753. It counts as cell-based.
Assay [5] deals with Venturia inaequalis VI19-032. Kind of assay: microbe, parasite or virus in culture. It counts as cell-based. The conditions noted are these: VI19032.
The conditions of assay [6]: Ref 5, producer Pseudomonas sp. DC165, cited from earlier work.
The test system of assay [7] is Phytophthora infestans 88069. Kind of assay: microbe, parasite or virus in culture. The format is cell-based.
Assay [8] has as its system Staphylococcus aureus ATCC 12600. The conditions noted are these: Ref 6; producer Pseudomonas aurantiaca; cited from earlier work.
For assay [9], the system named is Bacillus subtilis subsp. spizizenii ATCC 6633. The conditions noted are these: Ref 6; producer Pseudomonas aurantiaca; cited from earlier work.
Assay [10] deals with Pseudomonas syringae. pv. tomato PT30. Kind of assay: microbe, parasite or virus in culture. The format is cell-based.
For assay [11], the system named is Enterococcus hirae ATCC 8043. Particulars: Ref 6; producer Pseudomonas aurantiaca; cited from earlier work.
Assay [12] concerns Staphyllococcus aureus. Particulars: Ref 1; producer Pseudomonas sp. Ki19; cited from earlier work.
For assay [13], the system named is Aspergillus fumigatus. The conditions noted are these: Ref 1; producer Pseudomonas sp. Ki19; cited from earlier work.
Assay [14] concerns Candida albicans. The conditions noted are these: Ref 1; producer Pseudomonas sp. Ki19; cited from earlier work.
Assay [15] relates to Streptococcus mutans ATCC 25175. The conditions noted are these: Ref 6; producer Pseudomonas aurantiaca; cited from earlier work.
Assay [16] relates to Ralstonia solanacearum K60. Kind of assay: microbe, parasite or virus in culture. It counts as cell-based.
Assay [17] has as its system Clavibacter michiganensis subsp. michiganensis 382. Kind of assay: MIC value study of 1214-CHY4 metabolites. It counts as cell-based.
For assay [18], the system named is Fusarium culmorum. The conditions noted are these: Ref 1; producer Pseudomonas sp. Ki19; cited from earlier work.
For assay [19], the system named is Pseudomonas sevastanoi. The conditions noted are these: Ref 1; producer Pseudomonas sp. Ki19; cited from earlier work.
In assay [20] the test system is Staphylococcus aureus. Particulars: Ref 3-4; producer Pseudomonas sp. B-9004; cited from earlier work.
The subject of assay [21] is 22 bacteria and fungi, including Gram-positive bacteria mycobacteria. Particulars: Ref 3-4; producer Pseudomonas sp. B-9004; cited from earlier work.
Assay [22] has as its system Vibrio anguillarum C312. The conditions noted are these: Ref 5; producer P. aeruginosa PA31x; cited from earlier work.
The test system of assay [23] is Alternaria alternata, Phytophthora sp., Fusarium solani, F. oxysporum. The conditions noted are these: Ref 12; producer P. chlororaphis MCC2693; cited from earlier work.
For assay [24], the system named is Gaeumannomyces graminis var. tritici. Particulars: Ref 6; producer P. fluorescens 2-79; cited from earlier work.
Assay [25] has as its system Phytophthora infestans. The conditions noted are these: cited from earlier work.
The test system of assay [26] is Fusarium oxysporum. Particulars: cited from earlier work.
The subject of assay [27] is Botrytis cinerea. Particulars: cited from earlier work.
Assay [28] deals with Seiridium cardinale. The conditions noted are these: Ref 4; producer P. chlororaphis subsp. aureofaciens M71; cited from earlier work.
The subject of assay [29] is Clavibacter michiganensis subsp. michiganensis Cmm 0690. Kind of assay: plate diffusion assay. It counts as cell-based. Particulars: 200 μg/mL, read-out: Diameter of Growth Inhibition Zone.
The subject of assay [30] is Clavibacter michiganensis subsp. michiganensis NCPPB382. Description: plate diffusion assay. The format is cell-based. The conditions noted are these: 200 μg/mL, read-out: Diameter of Growth Inhibition Zone.
In assay [31] the test system is Clavibacter michiganensis subsp. michiganensis Cmm 0317. Kind of assay: plate diffusion assay. The format is cell-based. Particulars: 200 μg/mL, read-out: Diameter of Growth Inhibition Zone.

Results on five compounds are retold here after patent US20220232834A1, “PSEUDOMONAS CHLORORAPHIS SPECIES AND ITS USE IN THE CONTROL OF DISEASES CAUSED BY BACTERIA AND FUNGI” (T3 BIOSCIENCE, LLC, priority 2021, published 2022).

In brackets after ≈: the same amount, converted by molar mass. Where two headings read alike, the source gives them in different places. Marks after values point to notes of the source that are not given here.

A word on the zone of inhibition: it is the size of the clear area around the sample on an inoculated plate.

In the case of `CCCCCCc1c(O)cc(CCCCC)cc1O` (single isomer, unassigned) [Peak 2, 2-hexyl-5-pentylbenzene-1,3-diol], the MIC was greater than 100 µg/mL in assay [1]; 78 µg/mL (≈ 295 µM) in assay [4]; greater than 100 µg/mL in [5]; greater than 100 µg/mL in [7]; 312 µg/mL (≈ 1180 µM) in assay [10]; greater than 25000 µg/mL in assay [16] (Ralstonia solanacearum, K60). Also, the MIC is 1.56^c μg/mL in assay [17] and 1.56 µg/mL in [17] (Clavibacter michiganensis). The “Activity (MIC values)” value in assay [2] was “ATCC 14990 (4.2 μg/mL)”; in assay [3], “Drechslera sorokiniana (50 μg/mL)”; in assay [8], “ATCC 12600 (2.1 μg/mL)”; in [9] it was “ATCC 6633(4.2 μg/mL)”; in [11] it was “ATCC 8043 (4.2 μg/mL)”; in assay [12] it was “Staphyllococcus aureus (7 μg/mL)”. In addition, the “Activity (MIC values)” value in [13] is “Aspergillus fumigatus (50 μg/mL)”; in [14] it was “Candida albicans (50 μg/mL)”; in assay [15] it was “ATCC 25175(4.2 μg/mL)”; in [18] it was “Fusarium culmorum (50 μg/mL)”; in assay [19], “Pseudomonas sevastanoi (50 μg/mL)”. In addition, the “Activity: free radical scavenging” value was “Free radical scavenging substances” in assay [6] and “free radical scavenging substance” in [6] (listed as Resorstatin).

On to `CCCCCCCc1cc(O)c(CCCCCC)c(O)c1` (single isomer, unassigned) [Peak 3, 2-hexyl-5-heptylbenzene-1,3-diol], for which the MIC was greater than 100 µg/mL in assay [1]; 78 µg/mL (≈ 267 µM) in assay [4]; greater than 100 µg/mL in assay [5]; greater than 100 µg/mL in assay [7]; 156 µg/mL (≈ 533 µM) in [10]; greater than 25000 µg/mL in assay [16] (Ralstonia solanacearum, K60). Moreover, the MIC in [17] (Clavibacter michiganensis) was 0.78 µg/mL; in assay [17] (modified broth dilution (microdilution) method), 0.78^c μg/mL. In addition, the “Activity (MIC values)” value in assay [2] is given as “ATCC 14990 (4.2 μg/mL)”; in assay [8], “ATCC 12600 (4.2 μg/mL)”; in assay [9] it was “ATCC 6633(33.4 μg/mL)”; in [11], “ATCC 8043 (8.4 μg/mL)”; in assay [15] it was “ATCC 25175(8.4 μg/mL)”.

For `CCCCCCc1c(O)cc(CCC)cc1O` [DB2073], the “Activity (MIC values)” value in assay [20] is “(25 μg/mL)”. The Activity entry in [21] is “Active against 22 bacteria and fungi,”.

As to `O=C(O)c1cccc2nc3ccccc3nc12` (single isomer, unassigned) [Peak 4, phenazine-1-carboxylic acid], the MIC is 62.5 µg/mL (≈ 279 µM) in [1]; 100 µg/mL (≈ 446 µM) in [4]; 31.3 µg/mL (≈ 140 µM) in [5]; 1.56 µg/mL (≈ 6.96 µM) in [7]; 100 µg/mL (≈ 446 µM) in assay [10]; 6.25 µg/mL (≈ 27.9 µM) in assay [16] (Ralstonia solanacearum, K60). Besides, the MIC in assay [16] (agar dilution method) was 6.25^b μg/mL; in assay [17] (Clavibacter michiganensis), 100 µg/mL. Further, the “Active Against” value in [22] is “Vibrio anguillarum C312”; in assay [24], “Gaeumannomyces graminis var. tritici”; in assay [25] (Ref 2, producer P. fluorescens LBUM636) it was “Phytophthora infestans”; in assay [25] (Ref 3, producer P. fluorescens LBUM223), “Phytophthora infestans”; in assay [26] (Ref 7, producer P. fluorescens strain Psd), “Fusarium oxysporum”; in assay [27] (Ref 1, producer P. aeruginosa LV Strain), “Botrytis cinerea”. Further, the “Active Against” value in assay [28] is given as “Seiridium cardinale”. The “Active Against (order)” value in assay [23] is “Alternaria alternata > Phytophthora sp. >”. Also, the “reported to be effective against” value is “effective” in assay [26] (Upadhyay and Srivastava, 2011); “effective” in assay [27] (Upadhyay and Srivastava, 2011).

Regarding `CN[C@H](CC(C)C)C(=O)N[C@H]1C(=O)N[C@@H](CC(N)=O)C(=O)N[C@H]2C(=O)N[C@H]3C(=O)N[C@H](C(=O)N[C@H](C(=O)O)c4cc(O)cc(O)c4-c4cc3ccc4O)[C@H](O)c3ccc(c(Cl)c3)Oc3cc2cc(c3O[C@@H]2O[C@H](CO)[C@@H](O)[C@H](O)[C@H]2O[C@H]2C[C@](C)(N)[C@H](O)[C@H](C)O2)Oc2ccc(cc2Cl)[C@H]1O` [Vancomycin, reference compound], the MIC in [4] came to 50 µg/mL (≈ 34.5 µM); in [10] it was 100 µg/mL (≈ 69 µM); in assay [16] (Ralstonia solanacearum, K60), 100 µg/mL (≈ 69 µM); in assay [17] (Clavibacter michiganensis), 0.39 µg/mL. In addition, the zone of inhibition at 200 µg/mL worked out at 12 mm in assay [29], 13 mm in [30] and 11 mm in assay [31].
